Here are results for twelve compounds from patent publication US20220144809A1, “COMPOUNDS AND METHODS FOR THE TARGETED DEGRADATION OF ANDROGEN RECEPTOR AND ASSOCIATED METHODS OF USE” (Arvinas Operations, Inc., priority 2020, published 2022).

The test system of the assay is Androgen Receptor (AR). Briefly: Androgen Receptor ELISA assay (AR degradation in LNCaP and/or VCaP cells). Conditions: degradation of AR, 5 hours incubation, R1881 in media. The class given is cell-based. The method, then:
Assay for Testing AR Degradation Driven by Compounds of the Present Disclosure.
Androgen Receptor ELISA Assay. Compounds were evaluated in the following assay in LNCaP and/or VCaP cells utilizing similar protocols. The protocols used with VCaP cells are described below. The androgen receptor ELISA assay was performed using PathScan AR Sandwich ELISA (Cell Signaling Catalog#12850) according to the following assay steps.
VCaP cells were seeded at 40,000 cells/well at a volume of 100 μL/well in VCaP assay medium [Phenol red free RPMI (Gibco Cat#11835-030); 5% Charcoal Stripped (Dextran treated) FBS (Omega Scientific, Cat#FB-04); 1% penstrep (Life Technologies, Gibco Cat#: 10378-016)] in Corning 3904 plates. The cells were grown for a minimum of 3 days.
First, cells were dosed with compounds diluted in […]—in a polypropylene plate avoiding the use of outer columns according to the following protocol: (1)(i) 1000× stock plate in DMSO was made; (ii) 20 mM stock diluted 1/6.7 with DMSO (5 μL+28.3 μL DMSO)=3 mM into row H; (iii) serial dilutions in ½ log doses (10 μL of bifunctional compound+20 μL DMSO) was performed from row H towards row B with row A being reserved for DMSO; (iv) 7 doses total (final concentration in this 1000× plate will be 3 mM, 1 mM, 333 μM, 111 μM, etc). (2)(i) A 10× stock plate in media was made; (ii) 2.5 μL of the 1000× stock was trasnferred to a new 10× stock plate (use 12 channel pipet, start at A (DMSO control) work thru H. When 247.5 μL of media was added to this plate, it served as a 10× stock; (iii) made media+1 nM R1881 for making 10× stock plate; (iv) added 247.5 μL of media with 1 nM R1881 to each well of the 10× stock plate, mix.
Then 22 μL of 10× stock was added to cells and incubated for 5 hours. 1× Cell Signaling Cell lysis buffer was made (Catalogue #9803; comes with the kit) to have […], and was kept on ice. Media was aspirated, and 100 μL 1× cell lysis buffer/well was added. The cells were placed on a shaker located in a cold room for 10 minutes and shaken at speed 7. The lysate mixture was mix and 20 μL transferred to 100 μl of Diluent in ELISA plate (0.15 μg/ml-0.075 μg/ml). The lysate-diluent mixture was store at 4° C. overnight on a shaker located in a cold room at speed 5 (gentle swirl).
The lysate-diluent mixture was shaken for 30 minutes at 37° C. The mouse AR antibody, anti-mouse antibody, TMB, and STOP solution were allowed to come to room temperature. The 1×ELISA buffer included in kit was made and loaded in reservoir. Media from the plate was discarded, the ELISA plate was tapped hard on paper towel, and washed 4×200 μl ELISA wash buffer using a plate washer for the first three washes and an eight channel aspirator for the fourth wash to more thoroughly aspirate the solution.
Next, 100 μL/well of mouse AR detection Ab was added; the plate was covered and shaken at 37° C. for 1 hour; media was discarded from the plates, the plates tapped on a paper towel and washed four times with 200 μL ELISA wash buffer with a plate washer for the first three washes and an eight channel aspirator for the fourth wash; 100 μL/well of anti-mouse—HRP conjugated Ab (comes with the kit) was added; the plates wascover and shaken at 37° C. for 30 minutes; the TMB reagent was allowed to come to room temperature; the media from the plate was discarded, the plates tapped on paper towel, and washed four times with 200 μL ELISA wash buffer with a plate washer for the first three washes and an eight channel aspirator for the fourth wash; plates were tapped on paper towl; 100 μL TMB was added to each well and the plate shaken for 2 minutes—while watching color. STOP solution (100 μL) was added when light blue color developed. The plates were shake and read at 450 nm.
Data was analyzed and plotted using GraphPad Prism software. Exemplary compounds of Table 1 were assayed and the data shown below in Table 2. […]

As for `CCN(CC1CCN(CCOc2ccc(CN3C(=S)N(c4ccc(C#N)c(C(F)(F)F)c4)C(=O)C3(C)C)cn2)CC1)[C@H]1C[C@H](Oc2ccc3c(c2)C(=O)N(C2CCC(=O)NC2=O)C3=O)C1` (stereo partly drawn) [Compound 16, 4-(3-((6-(2-(4-((((1r,3r)-3-((2-(2,6-dioxopiperidin-3-yl)-1,3-dioxoisoindolin-5-yl)oxy)cyclobutyl)(ethyl)amino)methyl)piperidin-1-yl)ethoxy)pyridin-3-yl)methyl)-4,4-dimethyl-5-oxo-2-thioxoimidazolidin-1-yl)-2-(trifluoromethyl)benzonitrile], the DC50 was in the range of 0.001 to 0.01 µM and the “Dmax Code” value is on record as “C (C<50)”.

On to `CC(C)N(CC1CCN(CCCCn2c(=O)n(-c3ccc(C#N)c(C(F)(F)F)c3)c3ccccc32)CC1)[C@H]1C[C@H](Oc2ccc3c(c2)C(=O)N(C2CCC(=O)NC2=O)C3=O)C1` (stereo partly drawn) [Compound 24, 4-(3-(4-(4-((((1r,3r)-3-((2-(2,6-dioxopiperidin-3-yl)-1,3-dioxoisoindolin-5-yl)oxy)cyclobutyl)(isopropyl)amino)methyl)piperidin-1-yl)butyl)-2-oxo-2,3-dihydro-1H-benzo[d]imidazol-1-yl)-2-(trifluoromethyl)benzonitrile], for which the DC50 was no less than 0.1 µM and the “Dmax Code” value was “C (C<50)”.

Turning to `CC(C)N(C[C@H]1C[C@H](Oc2ccc(N3C(=S)N(c4cnc(C#N)c(C(F)(F)F)c4)C(=O)C34CCC4)cn2)C1)[C@H]1C[C@H](Oc2ccc3c(c2)C(=O)N(C2CCC(=O)NC2=O)C3=O)C1` (stereo partly drawn) [Compound 8, 5-(5-(6-((1R,3r)-3-((((1r,3R)-3-((2-(2,6-dioxopiperidin-3-yl)-1,3-dioxoisoindolin-5-yl)oxy)cyclobutyl)(isopropyl)amino)methyl)cyclobutoxy)pyridin-3-yl)-8-oxo-6-thioxo-5,7-diazaspiro[3.4]octan-7-yl)-3-(trifluoromethyl)picolinonitrile], the DC50 was in the range of 0.001 to 0.01 µM and the “Dmax Code” value is on record as “C (C<50)”.

In the case of `COc1cc(N2C(=O)C3(CCC3)N(c3ccc(N4CCC(CN5CCN(c6ccc7c(c6)C(=O)N(C6CCC(=O)NC6=O)C7=O)CC5)CC4)cc3)C2=S)ccc1C#N` (stereo not drawn) [Compound 7, 4-(5-(4-(4-((4-(2-(2,6-dioxopiperidin-3-yl)-1,3-dioxoisoindolin-5-yl)piperazin-1-yl)methyl)piperidin-1-yl)phenyl)-8-oxo-6-thioxo-5,7-diazaspiro[3.4]octan-7-yl)-2-methoxybenzonitrile], the DC50 was in the range of 0.001 to 0.01 µM and the “Dmax Code” value is “B (50≤B<70)”.

As to `N#Cc1ccc(N2C(=O)C3(CCC3)N(c3ccc(N4CCC(CN5CCN(c6ccc7c(c6)C(=O)N(C6CCC(=O)NC6=O)C7=O)CC5)CC4)cc3)C2=S)cc1Cl` (stereo not drawn) [Compound 9, 2-chloro-4-(5-(4-(4-((4-(2-(2,6-dioxopiperidin-3-yl)-1,3-dioxoisoindolin-5-yl)piperazin-1-yl)methyl)piperidin-1-yl)phenyl)-8-oxo-6-thioxo-5,7-diazaspiro[3.4]octan-7-yl)benzonitrile], the DC50 was 0.001 to 0.01 µM and the “Dmax Code” value is listed as “A (A≥70)”.

Take `CC1(C)C(=O)N(c2ccc(C#N)c(C(F)(F)F)c2)C(=S)N1Cc1ccc(OCCN2CCC(CN3CCN(c4ccc5c(c4)C(=O)N(C4CCC(=O)NC4=O)C5=O)CC3)CC2)nc1` (stereo not drawn) [Compound 14, 4-(3-((6-(2-(4-((4-(2-(2,6-dioxopiperidin-3-yl)-1,3-dioxoisoindolin-5-yl)piperazin-1-yl)methyl)piperidin-1-yl)ethoxy)pyridin-3-yl)methyl)-4,4-dimethyl-5-oxo-2-thioxoimidazolidin-1-yl)-2-(trifluoromethyl)benzonitrile]: the DC50 fell in the range of 0.001 to 0.01 µM and the “Dmax Code” value is “B (50≤B<70)”.

For `CC(C)N(CC1CCN(CCCn2c(=O)n(-c3ccc(C#N)c(C(F)(F)F)c3)c3ccccc32)CC1)[C@H]1C[C@H](Oc2ccc3c(c2)C(=O)N(C2CCC(=O)NC2=O)C3=O)C1` (stereo partly drawn) [Compound 23, 4-(3-(3-(4-((((1r,3r)-3-((2-(2,6-dioxopiperidin-3-yl)-1,3-dioxoisoindolin-5-yl)oxy)cyclobutyl)(isopropyl)amino)methyl)piperidin-1-yl)propyl)-2-oxo-2,3-dihydro-1H-benzo[d]imidazol-1-yl)-2-(trifluoromethyl)benzonitrile], the half-maximal degradation concentration (DC50) was no less than 0.1 µM and the “Dmax Code” value is “C (C<50)”.

For `Cc1c(C#N)c(-c2ccc(C#N)cc2)c(C)n1Cc1ccc(OCCN2CCC(CN3CCN(c4ccc5c(c4)C(=O)N(C4CCC(=O)NC4=O)C5=O)CC3)CC2)cc1` (stereo not drawn) [Compound 20, 4-(4-cyanophenyl)-1-(4-(2-(4-((4-(2-(2,6-dioxopiperidin-3-yl)-1,3-dioxoisoindolin-5-yl)piperazin-1-yl)methyl)piperidin-1-yl)ethoxy)benzyl)-2,5-dimethyl-1H-pyrrole-3-carbonitrile], the DC50 was no less than 0.1 µM and the “Dmax Code” value is on record as “C (C<50)”.

`CC(C)N(CC1CCN(c2ccc(N3C(=S)N(c4cnc(C#N)c(C(F)(F)F)c4)C(=O)C34CCC4)cn2)CC1)[C@H]1C[C@H](Oc2ccc3c(c2)C(=O)N(C2CCC(=O)NC2=O)C3=O)C1` (stereo partly drawn) [Compound 13, 5-(5-(6-(4-((((1r,3r)-3-((2-(2,6-dioxopiperidin-3-yl)-1,3-dioxoisoindolin-5-yl)oxy)cyclobutyl)(isopropyl)amino)methyl)piperidin-1-yl)pyridin-3-yl)-8-oxo-6-thioxo-5,7-diazaspiro[3.4]octan-7-yl)-3-(trifluoromethyl)picolinonitrile]: the DC50 was 0.001 to 0.01 µM and the “Dmax Code” value is given as “C (C<50)”.

As for `Cc1c(C#N)c(-c2ccc(C#N)cc2)c(C)n1Cc1ccc(OCCOCCN2CCC(CN3CCN(c4ccc5c(c4)C(=O)N(C4CCC(=O)NC4=O)C5=O)CC3)CC2)cc1` (stereo not drawn) [Compound 22, 4-(4-cyanophenyl)-1-(4-(2-(2-(4-((4-(2-(2,6-dioxopiperidin-3-yl)-1,3-dioxoisoindolin-5-yl)piperazin-1-yl)methyl)piperidin-1-yl)ethoxy)ethoxy)benzyl)-2,5-dimethyl-1H-pyrrole-3-carbonitrile], the DC50 was no less than 0.1 µM and the “Dmax Code” value is reported as “C (C<50)”.

Take `CC1(C)C(=O)N(c2ccc(C#N)c(C(F)(F)F)c2)C(=S)N1Cc1ccc(N2CCC(CN3CCN(c4ccc5c(c4)C(=O)N(C4CCC(=O)NC4=O)C5=O)CC3)CC2)nc1` (stereo not drawn) [Compound 3, 4-(3-((6-(4-((4-(2-(2,6-dioxopiperidin-3-yl)-1,3-dioxoisoindolin-5-yl)piperazin-1-yl)methyl)piperidin-1-yl)pyridin-3-yl)methyl)-4,4-dimethyl-5-oxo-2-thioxoimidazolidin-1-yl)-2-(trifluoromethyl)benzonitrile]: the half-maximal degradation concentration (DC50) was less than 0.001 µM and the “Dmax Code” value is given as “A (A≥70)”.

As for `Cc1c(C#N)c(-c2ccc(C#N)cc2)c(C)n1Cc1ccc(N2CCC(CN3CCN(c4ccc5c(c4)C(=O)N(C4CCC(=O)NC4=O)C5=O)CC3)CC2)cc1` (stereo not drawn) [Compound 18, 4-(4-cyanophenyl)-1-(4-(4-((4-(2-(2,6-dioxopiperidin-3-yl)-1,3-dioxoisoindolin-5-yl)piperazin-1-yl)methyl)piperidin-1-yl)benzyl)-2,5-dimethyl-1H-pyrrole-3-carbonitrile], the half-maximal degradation concentration (DC50) was no less than 0.1 µM and the “Dmax Code” value is given as “C (C<50)”.
